In PubChem BioAssay (NCI):
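GI50 is the concentration that inhibits growth by half. TGI is the concentration that stops growth completely.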

How the values were obtained:
Assay in all cases: DTP human tumour cell line panel, 384-well format
786-0 renal = test system: 786-0 renal
A498 renal = test system: A498 renal
A549 NSCLC = test system: A549 NSCLC
ACHN renal = test system: ACHN renal
BT-549 breast = test system: BT-549 breast
CAKI-1 renal = test system: CAKI-1 renal
CCRF-CEM leukemia = test system: CCRF-CEM leukemia
COLO 205 colon = test system: COLO 205 colon
DU-145 prostate = test system: DU-145 prostate
EKVX NSCLC = test system: EKVX NSCLC
HCC-2998 colon = test system: HCC-2998 colon
HCT-15 colon = test system: HCT-15 colon
HL-60(TB) leukemia = test system: HL-60(TB) leukemia
HOP-62 NSCLC = test system: HOP-62 NSCLC
HOP-92 NSCLC = test system: HOP-92 NSCLC
HS 578T breast = test system: HS 578T breast
HT29 colon = test system: HT29 colon
IGROV1 ovarian = test system: IGROV1 ovarian
K-562 leukemia = test system: K-562 leukemia
KM12 colon = test system: KM12 colon
LOX IMVI melanoma = test system: LOX IMVI melanoma
M14 melanoma = test system: M14 melanoma
MALME-3M melanoma = test system: MALME-3M melanoma
MCF7 breast = test system: MCF7 breast
MDA-MB-231 breast = test system: MDA-MB-231 breast
MDA-MB-435 melanoma = test system: MDA-MB-435 melanoma
MDA-MB-468 breast = test system: MDA-MB-468 breast
MOLT-4 leukemia = test system: MOLT-4 leukemia
NCI-H226 lung = test system: NCI-H226 lung
NCI-H23 lung = test system: NCI-H23 lung
NCI-H322M lung = test system: NCI-H322M lung
NCI-H460 NSCLC = test system: NCI-H460 NSCLC
NCI-H522 lung = test system: NCI-H522 lung
NCI/ADR-RES ovarian = test system: NCI/ADR-RES ovarian
OVCAR-3 ovarian = test system: OVCAR-3 ovarian
OVCAR-4 ovarian = test system: OVCAR-4 ovarian
OVCAR-5 ovarian = test system: OVCAR-5 ovarian
OVCAR-8 ovarian = test system: OVCAR-8 ovarian
PC-3 prostate = test system: PC-3 prostate
RPMI-8226 leukemia = test system: RPMI-8226 leukemia
RXF 393 renal = test system: RXF 393 renal
SF-268 CNS = test system: SF-268 CNS
SF-295 CNS = test system: SF-295 CNS
SF-539 CNS = test system: SF-539 CNS
SK-MEL-28 melanoma = test system: SK-MEL-28 melanoma
SK-MEL-5 melanoma = test system: SK-MEL-5 melanoma
SK-OV-3 ovarian = test system: SK-OV-3 ovarian
SNB-19 CNS = test system: SNB-19 CNS
SNB-75 CNS = test system: SNB-75 CNS
SR leukemia = test system: SR leukemia
SW-620 colon = test system: SW-620 colon
T-47D breast = test system: T-47D breast
TK-10 renal = test system: TK-10 renal
UACC-257 melanoma = test system: UACC-257 melanoma
UACC-62 melanoma = test system: UACC-62 melanoma
UO-31 renal = test system: UO-31 renal

Cn1c(=O)n(-c2ccc(C(C)(C)C#N)cc2)c2c3cc(-c4cnc5ccccc5c4)ccc3ncc21
GI50 ([…]-0 renal): < 10 nM
TGI (786-0 renal): 1190 nM
GI50 (A498 renal): < 10 nM
TGI (A498 renal): 16.8 nM
GI50 (A549 NSCLC): < 10 nM
TGI (A549 NSCLC): 1330 nM
GI50 (ACHN renal): < 10 nM
TGI (ACHN renal): > 100000 nM
GI50 (BT-549 breast): < 10 nM
TGI (BT-549 breast): 62.8 nM
GI50 (CAKI-1 renal): 12.7 nM
TGI (CAKI-1 renal): > 100000 nM
GI50 (CCRF-CEM leukemia): < 10 nM
TGI (CCRF-CEM leukemia): 103 nM
GI50 (COLO 205 colon): 21.5 nM
TGI (COLO 205 colon): 262 nM
GI50 (DU-145 prostate): < 10 nM
TGI (DU-145 prostate): > 100000 nM
GI50 (EKVX NSCLC): < 10 nM
TGI (EKVX NSCLC): 85.1 nM
GI50 (HCC-2998 colon): < 10 nM
TGI (HCC-2998 colon): 480 nM
GI50 (HCT-15 colon): < 10 nM
TGI (HCT-15 colon): > 100000 nM
GI50 (HL-60(TB) leukemia): 104 nM
TGI (HL-60(TB) leukemia): 1110 nM
GI50 (HOP-62 NSCLC): < 10 nM
TGI (HOP-62 NSCLC): 191 nM
GI50 (HOP-92 NSCLC): < 10 nM
TGI (HOP-92 NSCLC): 64.2 nM
GI50 (HS 578T breast): < 10 nM
TGI (HS 578T breast): 19.8 nM
GI50 (HT29 colon): 29.5 nM
TGI (HT29 colon): > 100000 nM
GI50 (IGROV1 ovarian): < 10 nM
TGI (IGROV1 ovarian): 28.6 nM
GI50 (K-562 leukemia): 13.9 nM
TGI (K-562 leukemia): 12800 nM
GI50 (KM12 colon): 13.5 nM
TGI (KM12 colon): 1290 nM
GI50 (LOX IMVI melanoma): < 10 nM
TGI (LOX IMVI melanoma): 69.8 nM
GI50 (M14 melanoma): 13.6 nM
TGI (M14 melanoma): 599 nM
GI50 (MALME-3M melanoma): < 10 nM
TGI (MALME-3M melanoma): 23 nM
GI50 (MCF7 breast): < 10 nM
TGI (MCF7 breast): 185 nM
GI50 (MDA-MB-231 breast): < 10 nM
TGI (MDA-MB-231 breast): > 100000 nM
GI50 (MDA-MB-435 melanoma): 17.6 nM
TGI (MDA-MB-435 melanoma): 492 nM
GI50 (MDA-MB-468 breast): < 10 nM
TGI (MDA-MB-468 breast): 30.4 nM
GI50 (MOLT-4 leukemia): < 10 nM
TGI (MOLT-4 leukemia): 86 nM
GI50 (NCI-H226 lung): < 10 nM
TGI (NCI-H226 lung): 62.3 nM
GI50 (NCI-H23 lung): 34.5 nM
TGI (NCI-H23 lung): 723 nM
GI50 (NCI-H322M lung): 12.1 nM
TGI (NCI-H322M lung): 2560 nM
GI50 (NCI-H460 NSCLC): < 10 nM
TGI (NCI-H460 NSCLC): 532 nM
GI50 (NCI-H522 lung): 10.4 nM
TGI (NCI-H522 lung): 237 nM
GI50 (NCI/ADR-RES ovarian): 29.7 nM
TGI (NCI/ADR-RES ovarian): 8070 nM
GI50 (OVCAR-3 ovarian): 12.3 nM
TGI (OVCAR-3 ovarian): 1700 nM
GI50 (OVCAR-4 ovarian): < 10 nM
TGI (OVCAR-4 ovarian): 27.2 nM
GI50 (OVCAR-5 ovarian): 13.3 nM
TGI (OVCAR-5 ovarian): 298 nM
GI50 (OVCAR-8 ovarian): < 10 nM
TGI (OVCAR-8 ovarian): > 100000 nM
GI50 (PC-3 prostate): < 10 nM
TGI (PC-3 prostate): 2110 nM
GI50 (RPMI-8226 leukemia): < 10 nM
GI50 (RXF 393 renal): < 10 nM
TGI (RXF 393 renal): > 100000 nM
GI50 (SF-268 CNS): 19.4 nM
TGI (SF-268 CNS): 3360 nM
GI50 (SF-295 CNS): < 10 nM
TGI (SF-295 CNS): 31.5 nM
GI50 (SF-539 CNS): < 10 nM
TGI (SF-539 CNS): 707 nM
GI50 (SK-MEL-28 melanoma): 13.5 nM
TGI (SK-MEL-28 melanoma): 95 nM
GI50 (SK-MEL-5 melanoma): 12.7 nM
TGI (SK-MEL-5 melanoma): 41.1 nM
GI50 (SK-OV-3 ovarian): < 10 nM
TGI (SK-OV-3 ovarian): 60.2 nM
GI50 (SNB-19 CNS): 40.8 nM
TGI (SNB-19 CNS): > 100000 nM
GI50 (SNB-75 CNS): < 10 nM
TGI (SNB-75 CNS): 80.9 nM
GI50 (SR leukemia): < 10 nM
TGI (SR leukemia): 17.2 nM
GI50 (SW-620 colon): 28.2 nM
TGI (SW-620 colon): > 100000 nM
GI50 (T-47D breast): < 10 nM
TGI (T-47D breast): 19.7 nM
GI50 (TK-10 renal): 23.9 nM
TGI (TK-10 renal): 126 nM
GI50 (UACC-257 melanoma): 21.4 nM
TGI (UACC-257 melanoma): 93.7 nM
GI50 (UACC-62 melanoma): < 10 nM
TGI (UACC-62 melanoma): 101 nM
GI50 (UO-31 renal): 19.6 nM
TGI (UO-31 renal): > 100000 nM
